Numbers after ± are expanded uncertainties.
Legend:
[1] = 100 kPa, Liquid; for viscosity: Concentric cylinders viscometry; for mass density: Vibrating tube method
[2] = xn = mol fraction of the nth substance listed; conditions: 100 kPa, Liquid; for viscosity: Concentric cylinders viscometry; for mass density: Vibrating tube method

Row | Structure (SMILES) | viscosity ([1]; 293.15 K) | mass density ([1]; 293.15 K) | viscosity ([1]; 298.15 K) | mass density ([1]; 298.15 K) | viscosity ([1]; 303.15 K) | mass density ([1]; 303.15 K) | viscosity ([1]; 308.15 K) | mass density ([1]; 308.15 K) | viscosity ([1]; 313.15 K) | mass density ([1]; 313.15 K) | viscosity ([1]; 318.15 K) | mass density ([1]; 318.15 K) | viscosity ([1]; 323.15 K) | mass density ([1]; 323.15 K) | other results
1 | CCCCOC(C)=O [butyl ethanoate] | 0.732 ± 0.037 mPa·s | 881.1 ± 10 kg/m3 | 0.677 ± 0.034 mPa·s | 876 ± 10 kg/m3 | 0.628 ± 0.032 mPa·s | 870.9 ± 10 kg/m3 | 0.585 ± 0.03 mPa·s | 865.7 ± 10 kg/m3 | 0.546 ± 0.028 mPa·s | 860.5 ± 10 kg/m3 | 0.512 ± 0.026 mPa·s | 855.3 ± 10 kg/m3 | 0.485 ± 0.025 mPa·s | 850.1 ± 10 kg/m3 | –
2 | CCCCOC(C)=O [butyl ethanoate] + CCCCCCCCCCO | – | – | – | – | – | – | – | – | – | – | – | – | – | – | viscosity ([2]; 293.15 K, x1 = 1): 0.732 ± 0.037 mPa·s; mass density ([2]; 293.15 K, x1 = 1): 881.1 ± 10 kg/m3; viscosity ([2]; 298.15 K, x1 = 1): 0.677 ± 0.034 mPa·s; mass density ([2]; 298.15 K, x1 = 1): 876 ± 10 kg/m3; viscosity ([2]; 303.15 K, x1 = 1): 0.628 ± 0.032 mPa·s; mass density ([2]; 303.15 K, x1 = 1): 870.9 ± 10 kg/m3; viscosity ([2]; 308.15 K, x1 = 1): 0.585 ± 0.03 mPa·s; mass density ([2]; 308.15 K, x1 = 1): 865.7 ± 10 kg/m3; viscosity ([2]; 313.15 K, x1 = 1): 0.546 ± 0.028 mPa·s; mass density ([2]; 313.15 K, x1 = 1): 860.5 ± 10 kg/m3; viscosity ([2]; 318.15 K, x1 = 1): 0.512 ± 0.026 mPa·s; mass density ([2]; 318.15 K, x1 = 1): 855.3 ± 10 kg/m3; viscosity ([2]; 323.15 K, x1 = 1): 0.485 ± 0.025 mPa·s; mass density ([2]; 323.15 K, x1 = 1): 850.1 ± 10 kg/m3
3 | CCCCOC(C)=O [butyl ethanoate] + CCCCCCCCCO | – | – | – | – | – | – | – | – | – | – | – | – | – | – | viscosity ([2]; 293.15 K, x1 = 1): 0.732 ± 0.037 mPa·s; mass density ([2]; 293.15 K, x1 = 1): 881.1 ± 10 kg/m3; viscosity ([2]; 298.15 K, x1 = 1): 0.677 ± 0.034 mPa·s; mass density ([2]; 298.15 K, x1 = 1): 876 ± 10 kg/m3; viscosity ([2]; 303.15 K, x1 = 1): 0.628 ± 0.032 mPa·s; mass density ([2]; 303.15 K, x1 = 1): 870.9 ± 10 kg/m3; viscosity ([2]; 308.15 K, x1 = 1): 0.585 ± 0.03 mPa·s; mass density ([2]; 308.15 K, x1 = 1): 865.7 ± 10 kg/m3; viscosity ([2]; 313.15 K, x1 = 1): 0.546 ± 0.028 mPa·s; mass density ([2]; 313.15 K, x1 = 1): 860.5 ± 10 kg/m3; viscosity ([2]; 318.15 K, x1 = 1): 0.512 ± 0.026 mPa·s; mass density ([2]; 318.15 K, x1 = 1): 855.3 ± 10 kg/m3; viscosity ([2]; 323.15 K, x1 = 1): 0.485 ± 0.025 mPa·s; mass density ([2]; 323.15 K, x1 = 1): 850.1 ± 10 kg/m3
4 | CCCCOC(C)=O [butyl ethanoate] + CCCCCCCO | – | – | – | – | – | – | – | – | – | – | – | – | – | – | viscosity ([2]; 293.15 K, x1 = 1): 0.732 ± 0.037 mPa·s; mass density ([2]; 293.15 K, x1 = 1): 881.1 ± 10 kg/m3; viscosity ([2]; 298.15 K, x1 = 1): 0.677 ± 0.034 mPa·s; mass density ([2]; 298.15 K, x1 = 1): 876 ± 10 kg/m3; viscosity ([2]; 303.15 K, x1 = 1): 0.628 ± 0.032 mPa·s; mass density ([2]; 303.15 K, x1 = 1): 870.9 ± 10 kg/m3; viscosity ([2]; 308.15 K, x1 = 1): 0.585 ± 0.03 mPa·s; mass density ([2]; 308.15 K, x1 = 1): 865.7 ± 10 kg/m3; viscosity ([2]; 313.15 K, x1 = 1): 0.546 ± 0.028 mPa·s; mass density ([2]; 313.15 K, x1 = 1): 860.5 ± 10 kg/m3; viscosity ([2]; 318.15 K, x1 = 1): 0.512 ± 0.026 mPa·s; mass density ([2]; 318.15 K, x1 = 1): 855.3 ± 10 kg/m3; viscosity ([2]; 323.15 K, x1 = 1): 0.485 ± 0.025 mPa·s; mass density ([2]; 323.15 K, x1 = 1): 850.1 ± 10 kg/m3
5 | CCCCCCCCCCO [decan-1-ol] | 14.42 ± 0.72 mPa·s | 829.5 ± 10 kg/m3 | 11.8 ± 0.59 mPa·s | 826.1 ± 10 kg/m3 | 9.76 ± 0.49 mPa·s | 822.7 ± 10 kg/m3 | 8.14 ± 0.41 mPa·s | 819.3 ± 10 kg/m3 | 6.84 ± 0.34 mPa·s | 815.8 ± 10 kg/m3 | 5.8 ± 0.29 mPa·s | 812.4 ± 10 kg/m3 | 4.96 ± 0.25 mPa·s | 808.9 ± 10 kg/m3 | –
6 | CCCCCCCO [heptan-1-ol] | 7.03 ± 0.35 mPa·s | 822.2 ± 10 kg/m3 | 5.92 ± 0.3 mPa·s | 818.7 ± 10 kg/m3 | 5.03 ± 0.25 mPa·s | 815.2 ± 10 kg/m3 | 4.3 ± 0.22 mPa·s | 811.6 ± 10 kg/m3 | 3.71 ± 0.19 mPa·s | 808 ± 10 kg/m3 | 3.21 ± 0.16 mPa·s | 804.4 ± 10 kg/m3 | 2.79 ± 0.14 mPa·s | 800.7 ± 10 kg/m3 | –
7 | CCCCCCO [hexan-1-ol] | 5.37 ± 0.27 mPa·s | 818.7 ± 10 kg/m3 | 4.58 ± 0.23 mPa·s | 815.1 ± 10 kg/m3 | 3.94 ± 0.2 mPa·s | 811.5 ± 10 kg/m3 | 3.4 ± 0.17 mPa·s | 807.9 ± 10 kg/m3 | 2.95 ± 0.15 mPa·s | 804.2 ± 10 kg/m3 | 2.58 ± 0.13 mPa·s | 800.6 ± 10 kg/m3 | 2.26 ± 0.11 mPa·s | 796.8 ± 10 kg/m3 | –
8 | CCCCCCO [hexan-1-ol] + CCCCOC(C)=O | – | – | – | – | – | – | – | – | – | – | – | – | – | – | viscosity ([2]; 293.15 K, x2 = 0): 5.37 ± 0.27 mPa·s; mass density ([2]; 293.15 K, x2 = 0): 818.7 ± 10 kg/m3; viscosity ([2]; 298.15 K, x2 = 0): 4.58 ± 0.23 mPa·s; mass density ([2]; 298.15 K, x2 = 0): 815.1 ± 10 kg/m3; viscosity ([2]; 303.15 K, x2 = 0): 3.94 ± 0.2 mPa·s; mass density ([2]; 303.15 K, x2 = 0): 811.5 ± 10 kg/m3; viscosity ([2]; 308.15 K, x2 = 0): 3.4 ± 0.17 mPa·s; mass density ([2]; 308.15 K, x2 = 0): 807.9 ± 10 kg/m3; viscosity ([2]; 313.15 K, x2 = 0): 2.95 ± 0.15 mPa·s; mass density ([2]; 313.15 K, x2 = 0): 804.2 ± 10 kg/m3; viscosity ([2]; 318.15 K, x2 = 0): 2.58 ± 0.13 mPa·s; mass density ([2]; 318.15 K, x2 = 0): 800.6 ± 10 kg/m3; viscosity ([2]; 323.15 K, x2 = 0): 2.26 ± 0.11 mPa·s; mass density ([2]; 323.15 K, x2 = 0): 796.8 ± 10 kg/m3
9 | CCCCCCCCCO [nonan-1-ol] | 11.41 ± 0.57 mPa·s | 827.5 ± 10 kg/m3 | 9.43 ± 0.47 mPa·s | 824 ± 10 kg/m3 | 7.86 ± 0.39 mPa·s | 820.5 ± 10 kg/m3 | 6.61 ± 0.33 mPa·s | 817.1 ± 10 kg/m3 | 5.59 ± 0.28 mPa·s | 813.6 ± 10 kg/m3 | 4.78 ± 0.24 mPa·s | 810.1 ± 10 kg/m3 | 4.1 ± 0.21 mPa·s | 806.5 ± 10 kg/m3 | –
10 | CCCCCCCCO [octan-1-ol] | 9.13 ± 0.46 mPa·s | 824.9 ± 10 kg/m3 | 7.62 ± 0.38 mPa·s | 821.4 ± 10 kg/m3 | 6.41 ± 0.32 mPa·s | 817.9 ± 10 kg/m3 | 5.43 ± 0.27 mPa·s | 814.4 ± 10 kg/m3 | 4.63 ± 0.23 mPa·s | 810.9 ± 10 kg/m3 | 3.98 ± 0.2 mPa·s | 807.3 ± 10 kg/m3 | 3.44 ± 0.17 mPa·s | 803.7 ± 10 kg/m3 | –
11 | CCCCCCCCO [octan-1-ol] + CCCCOC(C)=O | – | – | – | – | – | – | – | – | – | – | – | – | – | – | viscosity ([2]; 293.15 K, x2 = 0): 9.13 ± 0.46 mPa·s; mass density ([2]; 293.15 K, x2 = 0): 824.9 ± 10 kg/m3; viscosity ([2]; 298.15 K, x2 = 0): 7.62 ± 0.38 mPa·s; mass density ([2]; 298.15 K, x2 = 0): 821.4 ± 10 kg/m3; viscosity ([2]; 303.15 K, x2 = 0): 6.41 ± 0.32 mPa·s; mass density ([2]; 303.15 K, x2 = 0): 817.9 ± 10 kg/m3; viscosity ([2]; 308.15 K, x2 = 0): 5.43 ± 0.27 mPa·s; mass density ([2]; 308.15 K, x2 = 0): 814.4 ± 10 kg/m3; viscosity ([2]; 313.15 K, x2 = 0): 4.63 ± 0.23 mPa·s; mass density ([2]; 313.15 K, x2 = 0): 810.9 ± 10 kg/m3; viscosity ([2]; 318.15 K, x2 = 0): 3.98 ± 0.2 mPa·s; mass density ([2]; 318.15 K, x2 = 0): 807.3 ± 10 kg/m3; viscosity ([2]; 323.15 K, x2 = 0): 3.44 ± 0.17 mPa·s; mass density ([2]; 323.15 K, x2 = 0): 803.7 ± 10 kg/m3
